System: H2122 cells
Assay: H2122 cell-line derived xenograft model, tumor volumes
Assay type: in vivo, nude/nude mice
Details: for tumor growth inhibition: Day 17, single agent, H2122 xenograft, 100 mg/kg Compound 478 or 50 mg/kg olaparib p.o. daily; for Average Tumor Volumes: H2122 tumor bearing mice, 100 mg/kg Compound 478 and/or 50 mg/kg olaparib p.o. daily
Description: Immunocompromised nude/nude mice were inoculated in the right hind flank with cells or patient derived tumor samples harboring a KRas G12C mutation. When tumor volumes reach ˜300 mm^3 in size, the mice were divided into four groups of 5 mice each. The first group was administered vehicle only. […] The fourth group was orally administered the single agent dose of the KRas G12C inhibitor in combination with the single agent dose of the PARP inhibitor at the matched schedule. The treatment period was 17 days. Tumor volumes were measured using a caliper every two-three days and tumor volumes are calculated by the formula: […].
For example, twenty nude/nude mice were inoculated in the right hind limb with 5×10^6 H2122 cells. When tumor volume reached ˜300 mm^3 (Study Day 1), 5 mice in each of the […] groups were administered p.o. daily for 32 days: vehicle only (10% Captisol in 50 mM citrate buffer pH5.0), 100 mg/kg of KRas G12C inhibitor Compound 478 (10% Captisol in 50 mM citrate buffer, pH 5.0), 50 mg/kg of the PARP inhibitor olaparib (10% Captisol in 50 mM citrate buffer, pH 5.0), or 100 mg/kg of KRas G12C inhibitor Compound 478 and 50 mg/kg of olaparib. Dosing stopped on day 17 for all groups due to large tumor growth in the vehicle and Olaparib only groups.

In the case of `C=C(F)C(=O)N1CCN(c2nc(OC[C@@H]3CCCN3C)nc3c2CCN(c2cccc4cccc(Cl)c24)C3)C[C@@H]1CC#N` [Compound 478, adagrasib], the tumor growth inhibition is reported as 89%, the “Average Tumor Volumes” value (Study Day 3) is reported as 290.578 mm^3 and the “Average Tumor Volumes” value (Study Day 6) is reported as 301.744 mm^3. For the same molecule, the “Average Tumor Volumes” value (Study Day 10) was 326.222 mm^3, the “Average Tumor Volumes” value (Study Day 13) was 345.38 mm^3 and the “Average Tumor Volumes” value (Study Day 17) was 360.308 mm^3. For the same molecule, the “Average Tumor Volumes” value (Study Day −1 (before dosing)) was 284.794 mm^3.
For `O=C(c1cc(Cc2n[nH]c(=O)c3ccccc23)ccc1F)N1CCN(C(=O)C2CC2)CC1` [Olaparib, 4-[[3-[4-(cyclopropanecarbonyl)piperazine-1-carbonyl]-4-fluorophenyl]methyl]-2H-phthalazin-1-one], the tumor growth inhibition was 0%, the “Average Tumor Volumes” value (Study Day 3) was 451.342 mm^3 and the “Average Tumor Volumes” value (Study Day 6) was 558.15 mm^3. The “Average Tumor Volumes” value (Study Day 10) was 776.514 mm^3, the “Average Tumor Volumes” value (Study Day 13) was 848.664 mm^3 and the “Average Tumor Volumes” value (Study Day 17) was 1058.96 mm^3. For the same molecule, the “Average Tumor Volumes” value (Study Day −1 (before dosing)) was 292.194 mm^3.

Source: patent US20260102401A1, “Combination Therapies” (MIRATI THERAPEUTICS, INC., priority 2022, published 2026)
